Laboratory results: the NIST ThermoML archive (doi:10.1016/j.jct.2016.03.026)

Experiment: xn = mol fraction of the nth substance listed
Conditions: 263.15 K, Fluid (supercritical or subcritical phases), Vibrating tube method, x1 = 0.97

O=C=O [carbon dioxide] + CO
Conditions | mass density [kg/m3]
12100 kPa | 1025.98
12125 kPa | 1026.07
12150 kPa | 1026.15
12175 kPa | 1026.31
12200 kPa | 1026.39
12225 kPa | 1026.47
12250 kPa | 1026.56
12275 kPa | 1026.64
12300 kPa | 1026.72
12325 kPa | 1026.88
12350 kPa | 1026.96
12375 kPa | 1027.05
12400 kPa | 1027.13
12425 kPa | 1027.21
12450 kPa | 1027.29
12475 kPa | 1027.38
12500 kPa | 1027.53
12525 kPa | 1027.62
12550 kPa | 1027.7
12575 kPa | 1027.78
12600 kPa | 1027.86
12625 kPa | 1027.96
12650 kPa | 1028.09
12675 kPa | 1028.19
12700 kPa | 1028.27
12725 kPa | 1028.35
12750 kPa | 1028.43
12775 kPa | 1028.51
12800 kPa | 1028.6
12825 kPa | 1028.76
12850 kPa | 1028.84
12875 kPa | 1028.92
12900 kPa | 1029
12925 kPa | 1029.08
12950 kPa | 1029.2
12975 kPa | 1029.3
13000 kPa | 1029.41
13025 kPa | 1029.49
13050 kPa | 1029.57
13075 kPa | 1029.65
13100 kPa | 1029.73
13125 kPa | 1029.88
13150 kPa | 1029.94
13175 kPa | 1030.06
13200 kPa | 1030.14
13225 kPa | 1030.22
13250 kPa | 1030.31
13275 kPa | 1030.39
13300 kPa | 1030.53
13325 kPa | 1030.63
13350 kPa | 1030.71
13375 kPa | 1030.8
13400 kPa | 1030.88
13425 kPa | 1030.96
13450 kPa | 1031.04
13475 kPa | 1031.14
13500 kPa | 1031.29
13525 kPa | 1031.37
13550 kPa | 1031.45
13575 kPa | 1031.53
13600 kPa | 1031.61
